Source: ChEMBL document CHEMBL5506015, “Discovery of a Meisoindigo-Derived PROTAC as the ATM Degrader: Revolutionizing Colorectal Cancer Therapy via Synthetic Lethality with ATR Inhibitors” (J Med Chem, 2024)
pIC50: −log10 of the molar value. Activity calls are given as the source filed them. The rule behind the calls is not given here.

How the values were obtained:
SW-620 [1] = assay: Cytotoxicity against human SW620 cells assessed as reduction in cell viability incubated for 48 hrs by MTT assay; conditions: SW-620, 48 h
SW480 = assay: Cytotoxicity against human SW480 cells assessed as reduction in cell viability incubated for 48 hrs by MTT assay; conditions: SW480, 48 h
K562 = assay: Cytotoxicity against human K562 cells assessed as reduction in cell viability incubated for 48 hrs by MTT assay; conditions: K562, 48 h
[2] = Cytotoxicity against human HIEC-6 cells assessed as reduction in cell viability incubated for 48 hrs by MTT assay; format: toxicity, cell-based; conditions: HIEC-6 cells
LoVo = assay: Cytotoxicity against human LoVo cells assessed as reduction in cell viability incubated for 48 hrs by MTT assay
A2780 = assay: Cytotoxicity against human A2780 cells assessed as reduction in cell viability incubated for 48 hrs by MTT assay; conditions: A2780, 48 h
SW13 = assay: Cytotoxicity against human SW13 cells assessed as reduction in cell viability incubated for 48 hrs by MTT assay; conditions: SW13, 48 h
RKO = assay: Cytotoxicity against human RKO cells assessed as reduction in cell viability incubated for 48 hrs by MTT assay
NCI-H358 = assay: Cytotoxicity against human NCI-H358 cells assessed as reduction in cell viability incubated for 48 hrs by MTT assay; conditions: NCI-H358, 48 h
HCT-116 = assay: Cytotoxicity against human HCT-116 cells assessed as reduction in cell viability incubated for 48 hrs by MTT assay; conditions: HCT-116, 48 h
COLO 205 = assay: Cytotoxicity against human COLO 205 cells assessed as reduction in cell viability incubated for 48 hrs by MTT assay; conditions: COLO 205, 48 h
SW-620 [3] = assay: Downregulation of PROX1 level in human SW620 cells at 1.25 to 10 uM measured after 12 hrs by immunoblot analysis; format: functional, cell-based; conditions: dose 1.25-10 µM
SW-620 [4] = assay: Downregulation of KDM4B level in human SW620 cells at 1.25 to 10 uM measured after 12 hrs by immunoblot analysis; format: functional, cell-based; conditions: dose 1.25-10 µM
SW-620 [5] = assay: Effect on ATM mRNA level in human SW620 cells at 2.5 to 10 uM incubated for 12 hr by RT-PCR analysis; format: functional, cell-based; conditions: dose 2.5-10 µM
SW-620 [6] = assay: Antitumor activity against human SW620 cells xenografted in Balb/c nude mouse model assessed as fibrosis at 25 mg/kg/day measured after 14 days by H and E staining based analysis; format: functional, organism-based; conditions: time 14.0 day
SW-620 [7] = assay: Antitumor activity against human SW620 cells xenografted in Balb/c nude mouse model assessed as increase in gamma-H2AX at 25 mg/kg/day measured after 14 days by Western blot analysis; format: functional, organism-based; conditions: time 14.0 day
SW-620 [8] = assay: Antitumor activity against human SW620 cells xenografted in Balb/c nude mouse model assessed as increase in gamma-H2AX level at 25 mg/kg/day measured after 14 days by Western blot analysis; format: functional, organism-based; conditions: time 14.0 day
SW-620 [9] = assay: Antitumor activity against human SW620 cells xenografted in Balb/c nude mouse model assessed as inflammatory cell infiltration at 25 mg/kg/day measured after 14 days by H and E staining based analysis; format: functional, organism-based; conditions: time 14.0 day
SW-620 [10] = assay: Antitumor activity against human SW620 cells xenografted in Balb/c nude mouse model assessed as reduction in tumor load at 25 mg/kg/day administered for 14 days by vernier caliper based analysis; format: functional, organism-based; conditions: time 14.0 day
SW-620 [11] = assay: Antitumor activity against human SW620 cells xenografted in Balb/c nude mouse model assessed as decrease in cleaved caspase 3 level at 25 mg/kg/day measured after 14 days by Western blot analysis; format: functional, organism-based; conditions: time 14.0 day
SW-620 [12] = assay: Antitumor activity against human SW620 cells xenografted in Balb/c nude mouse model assessed as increase in cleaved-caspase 3 level at 25 mg/kg/day measured after 14 days by Western blot analysis; format: functional, organism-based; conditions: time 14.0 day
SW-620 [13] = assay: Antitumor activity against human SW620 cells xenografted in Balb/c nude mouse model assessed as decrease in BCL2 protein level at 25 mg/kg/day measured after 14 days by Western blot analysis; format: functional, organism-based; conditions: time 14.0 day
SW-620 [14] = assay: Antitumor activity against human SW620 cells xenografted in Balb/c nude mouse model assessed as decrease in ATM protein level at 25 mg/kg/day measured after 14 days by Western blot analysis; format: functional, organism-based; conditions: time 14.0 day
SW-620 [15] = assay: Antitumor activity against human SW620 cells xenografted in Balb/c nude mouse model assessed as necrosis at 25 mg/kg/day measured after 14 days by H and E staining based analysis; format: functional, organism-based; conditions: time 14.0 day
SW-620 [16] = assay: Antitumor activity against human SW620 cells xenografted in Balb/c nude mouse model assessed as decrease in pro-caspase 3 level at 25 mg/kg/day measured after 14 days by Western blot analysis; format: functional, organism-based; conditions: time 14.0 day

With `O=C1CCC(N2Cc3c(NCCCCCCn4cc(CCCN5C(=O)/C(=C6/C(=O)Nc7ccccc76)c6ccccc65)nn4)cccc3C2=O)C(=O)N1` (stereo not drawn) the pIC50 (SW-620 [1]) was 5.11, the pIC50 (SW480) was < 4.70 and the pIC50 (K562) was < 4.70. For the same compound, the IC50 at 48 h [2] was > 20 µM, the pIC50 (LoVo) was 4.82 and the pIC50 (A2780) was 5.13. For the same compound, the pIC50 (SW13) was < 4.70, the pIC50 (RKO) was 5.17 and the pIC50 (NCI-H358) was < 4.70. For the same compound, the pIC50 (HCT-116) was < 4.70 and the pIC50 (COLO 205) was < 4.70.

In the case of `O=c1[nH]cc(F)c(=O)[nH]1` [FLUOROURACIL], the pIC50 (SW-620 [1]) was 4.86, the pIC50 (SW480) was 4.90 and the pIC50 (K562) was < 4.70. The IC50 at 48 h [2] was 18.6 µM, the pIC50 (LoVo) was 5.00 and the pIC50 (A2780) was 4.89. For the same compound, the pIC50 (SW13) was < 4.70, the pIC50 (RKO) was 5.46 and the pIC50 (NCI-H358) was < 4.70. It also gave a pIC50 (COLO 205) of 5.34.

For `CC(C)n1c(=O)n(C)c2cnc3cc(F)c(-c4ccc(OCCCN5CCCCC5)nc4)cc3c21` [AZD-1390], the pIC50 (SW-620 [1]) was < 4.70, the pIC50 (SW480) was < 4.70 and the pIC50 (K562) was < 4.70. The IC50 at 48 h [2] was > 20 µM, the pIC50 (LoVo) was < 4.70 and the pIC50 (A2780) was < 4.70. The pIC50 (SW13) was < 4.70, the pIC50 (RKO) was < 4.70 and the pIC50 (NCI-H358) was < 4.70. For the same compound, the pIC50 (HCT-116) was < 4.70 and the pIC50 (COLO 205) was < 4.70.

`CN1C(=O)/C(=C2/C(=O)Nc3ccccc32)c2ccccc21` [MEISOINDIGO] gave a pIC50 (SW-620 [1]) of 5.04, a pIC50 (SW480) of 5.55 and a pIC50 (K562) of 5.09. For the same compound, the IC50 at 48 h [2] was 12 µM, the pIC50 (LoVo) was 4.90 and the pIC50 (A2780) was 5.18. The Activity (SW-620 [3]) was “Active”, the pIC50 (SW13) was 4.89 and the pIC50 (RKO) was 4.93. The pIC50 (NCI-H358) was < 4.70, the pIC50 (HCT-116) was 5.27 and the pIC50 (COLO 205) was 5.12. For the same compound, the Activity (SW-620 [4]) was “Active” and the Activity (SW-620 [5]) was “inactive”.

In the case of `C[C@@H]1COCCN1c1cc(C2([S@](C)(=N)=O)CC2)nc(-c2cc[nH]c3nccc2-3)n1`, the Activity (SW-620 [6]) was “Active”, the Activity (SW-620 [7]) was “Active” and the Activity (SW-620 [8]) was “Active”. The Activity (SW-620 [9]) was “Active”, the Activity (SW-620 [10]) was “Active” and the Activity (SW-620 [11]) was “Active”. The Activity (SW-620 [12]) was “Active”, the Activity (SW-620 [13]) was “Active” and the Activity (SW-620 [14]) was “Active”. For the same compound, the Activity (SW-620 [15]) was “Active” and the Activity (SW-620 [16]) was “Active”.

In the case of `Cc1ncsc1-c1ccc(CNC(=O)[C@@H]2C[C@@H](O)CN2C(=O)[C@@H](NC(=O)OC(C)(C)C)C(C)(C)C)cc1`, the pIC50 (SW-620 [1]) was < 4.70, the pIC50 (SW480) was < 4.70 and the pIC50 (K562) was < 4.70. For the same compound, the IC50 at 48 h [2] was > 20 µM, the pIC50 (LoVo) was < 4.70 and the pIC50 (A2780) was < 4.70. The pIC50 (SW13) was < 4.70, the pIC50 (RKO) was < 4.70 and the pIC50 (NCI-H358) was < 4.70. The pIC50 (HCT-116) was < 4.70 and the pIC50 (COLO 205) was < 4.70.
